Reference: patent US10077293B2, “Antimicrobial peptide analogues derived from abalone (Haliotis discus) and antimicrobial pharmaceutical composition containing the same” (priority 2016, dated 2018)
Ends that are not written are not given here.

Columns and labels:
E. coli ML35p [1] = test: Chromogenic bacteriolytic plate assay; type: cell-based; conditions: E. coli ML35p (FIG. 6)
Method: In order to investigate the lytic activity of the analogues for bacterial membrane, chromogenic bacteriolytic plate assay was conducted using E. coli ML35p containing a chromosomal IPTG-inducible β-galactosidase gene (Mardones, G., Venegas, A. Chromogenic plate assay distinguishing bacteriolytic from bacteriostatic activity of an antibiotic agent. J Microbiol Methods. 2000, 40(3), 199-206). After inoculating 2 mL of E. coli ML35p to TSB and culturing at 37° C. for 16-18 hours, a mixture of 50 μL of the cultured microorganism solution, 10 μL of 1 mM IPTG and 50 μL of 50 mg/mL X-gal was poured onto TSB containing 0.8% agarose at 42° C. the next day. After boring a well on the solidified plate, 5 μL of each peptide analogue solution was introduced and incubation was conducted for 3 hours. Then, after pouring 2×TSB containing 10 mL of 1.5% agarose to the plate and solidifying, incubation was conducted again for 16-18 hours. After the incubation, the size (diameter) of a clearing zone and the presence or absence of a blue line at the edge portion were investigated.

B. subtilis KCTC1021 = test: Ultrasensitive radial diffusion assay (URDA), antimicrobial activity; type: cell-based, Bacillus subtilis; conditions: B. subtilis KCTC1021, Gram +
Method: (§1) Four species of Gram positive bacteria (Bacillus subtilis, Staphylococcus epidermidis, […] and Propionibacterium acnes), five species of Gram negative bacteria (E. coli D31, E. coli ML35p, Shigella flexneri, Pseudomonas aeruginosa and Vibrio parahaemolyticus) and one yeast species (Candida albicans) were used for experiments. The antimicrobial activity was measured by ultrasensitive radial diffusion assay (URDA) using two layers of media of different concentrations. First, the microorganisms were pre-cultured in each medium for 18 hours and the concentration of the microorganisms was adjusted to 84% T (≈1×10^8 CFU/mL) using a colorimeter (Product No. 52-1210, BioMerieux, Inc., USA). Then, 0.5 mL of the diluted microorganism solution was added to an underlay gel containing 9.5 mL of 0.03% TSB, 1% type I agarose and 10 mM phosphate buffer (PB; pH 6.5) and plated and solidified on a plate after mixing well. After boring a well with a diameter of 2.5 mm on the solidified plate using a punch, 5 μL of each analogue solution was introduced. All the analogues were dissolved in 5 μL of 0.01% acetic acid to avoid any effect of solvent. After the analogue permeated into the medium, the microorganisms were cultured for 3 hours and an overlay gel containing 10 mL of 6% TSB, 1% type I agarose and 10 mM phosphate buffer (pH 6.5) was poured and solidified. Then, the microorganisms were cultured again for 18 hours at the same temperature. Next day, the antimicrobial activity was determined by measuring the size (diameter) of a clear zone formed around the well. Piscidin 1, an antimicrobial peptide derived from the mast cells of a hybrid striped bass, was used as a control.

S. mutans KCCM40105 = test: as above; type: cell-based, Streptococcus mutans; conditions: S. mutans KCCM40105, Gram +
Method: as §1

[2] = tested on: Vibrio parahaemolyticus KCCM42264; test: as above; type: cell-based
Method: as §1

[3] = tested on: Shigella flexneri KCTC2009; test: as above; type: cell-based; conditions: Shigella flexneri KCTC2009, Gram −
Method: as §1

[4] = tested on: Propionibacterium acnes KCTC11946; test: as above; type: cell-based; conditions: Propionibacterium acnes KCTC11946, Gram +
Method: as §1

E. coli ML35p [5] = test: as above; type: cell-based; conditions: Gram −
Method: as §1

E. coli D31 = test: as above; type: cell-based; conditions: E. coli D31, Gram −
Method: as §1

P. aeruginosa KCTC2004 = test: as above; type: cell-based, Pseudomonas aeruginosa; conditions: P. aeruginosa KCTC2004, Gram −
Method: as §1

C. albicans = test: as above; type: cell-based, Candida albicans
Method: as §1

S. epidermidis KCTC1917 = test: as above; type: cell-based, Staphylococcus epidermidis; conditions: S. epidermidis KCTC1917, Gram +
Method: as §1

E. coli ML35p [6] = test: Killing kinetics study; type: cell-based
Method: For killing kinetics study of the analogues whose bactericidal process was identified, killing rate for each analogue was investigated at 1×MIC and 5×MIC for 60 minutes. For this, the analogue was added to an e-tube containing 10^6 CFU/mL of E. coli ML35p. While incubating at 37° C., 10 μL of the solution was taken from the tube at predetermined times (5, 10, 20, 30, 40, 50 and 60 minutes after the addition of the analogue) and plated on a TSA plate. Then, the number of formed colonies was counted. As control groups, no analogue or piscidin 1 was added. The killing % for the analogues was represented as the number of formed colonies relative to that when no analogue was added.

human red blood cells = type: cell-based
Method: Hemolytic activity was measured using human red blood cells. After adding to human blood an equal amount of phosphate buffered saline (PBS, 50 mM sodium phosphate, 150 mM NaCl, pH 7.4), mixing and centrifuging at 8000×g and 4° C. for 1 minute, the supernatant was removed and the remaining red blood cells were washed 3 times. The red blood cells were added to PBS to a concentration of 3% hematocrit. In order to measure the hemolytic activity, 90 μL of the 3% hematocrit was introduced to an e-tube and then 10 μL of each analogue solution (×10) was added. After incubation of each e-tube at 37° C. for 1 hour, centrifugation was performed at 13,000×g and 4° C. for 10 minutes. After taking 70 μL from each supernatant and transferring to a 96-well microtiter plate, release of hemoglobin was measured at 405 nm. Triton X-100 (0.1%) was used as a control group for 100% lysis of red blood cells and the hemolytic activity was calculated according to the following equation. % Hemolysis=[(Abs 405 nm in the peptide solution−Abs 405 nm in buffer)/(Abs 405 nm in 0.1% Triton X-100−Abs 405 nm in buffer)]×100

[7] = C. albicans KCCM42264 (as printed in Table 2), yeast

| Molecule | bacteriolytic activity: blue line at the edge portion of the clearing zone (E. coli ML35p [1]) | Minimal effective concentration (B. subtilis KCTC1021) [µg/mL] | Minimal effective concentration (S. mutans KCCM40105) [µg/mL] | Minimal effective concentration [2] [µg/mL] | Minimal effective concentration [3] [µg/mL] | Minimal effective concentration [4] [µg/mL] | Minimal effective concentration (E. coli ML35p [5]) [µg/mL] | Minimal effective concentration (E. coli D31) [µg/mL] | Minimal effective concentration (P. aeruginosa KCTC2004) [µg/mL] | Minimal effective concentration (C. albicans; [7]) [µg/mL] | Minimal effective concentration (S. epidermidis KCTC1917) [µg/mL] | time to kill E. coli ML35p (E. coli ML35p [6]; 1×MIC) [min] | time to kill E. coli ML35p (E. coli ML35p [6]; 5×MIC) [min] | Minimal effective concentration (C. albicans; C. albicans KCTC7965, yeast) [µg/mL] | hemolytic activity (in words, FIG. 4) (human red blood cells) |
| --- | --- | --- | --- | --- | --- | --- | --- | --- | --- | --- | --- | --- | --- | --- | --- |
| [H]/N=C(/N)N[C@H]1[C@H](O)[C@@H](O)[C@H](O[C@@H]2O[C@@H](C)[C@](O)(C=O)[C@H]2O[C@@H]2O[C@@H](CO)[C@H](O)[C@@H](O)[C@@H]2NC)[C@@H](N/C(N)=N\[H])[C@@H]1O [streptomycin] | showed a blue line at the edge portion | – | – | – | – | – | – | – | – | – | – | – | – | – | – |
| AAWKLLKALAKA-NH2 [SEQ ID NO 1, AAWKLLKALAKA] | – | 20.0 | 20.3 | 26.3 | 28.0 | 25.0 | 23.0 | 22.0 | 36.0 | 42.0 | 17.3 | – | – | – | – |
| FFHHIFRGIVHVGKTIHRLVTG-NH2 [Piscidin 1, reference compound] | showed an edge line | 7.5 | 3.2 | 3.0 | 8.0 | – | 2.3 | 3.8 | 8.0 | >62.5 | – | ≤ 20 | ≤ 5 | >62.5 | – |
| KAAAKAAKAA-NH2 (C-terminus assumed) [SEQ ID NO 6, KAAAKAAKAA] | – | >50.0 | >50.0 | >50.0 | >50.0 | >50.0 | >50.0 | >50.0 | >50.0 | – | >50.0 | – | – | >50.0 | – |
| KLALKLLKLL-NH2 [SEQ ID NO 5, KLALKLLKLL] | – | 15.2 | 10.5 | 8.1 | 17.9 | 16.6 | – | 17.5 | 19.9 | – | 16.4 | – | – | 14.4 | – |
| KLLKKLLKLL-NH2 [SEQ ID NO 9, KLLKKLLKLL] | – | 15.7 | 9.0 | 9.5 | 15.4 | 18.5 | 17.2 | 18.9 | 17.8 | – | 14.0 | – | – | 14.0 | – |
| KLLLKLLKKLL-NH2 [SEQ ID NO 8, KLLLKLLKKLL] | – | 10.3 | 7.4 | 7.1 | 10.7 | 12.3 | 9.8 | 14.2 | 12.5 | – | 9.6 | – | – | 11.8 | – |
| KLLLKLLKLL-NH2 [SEQ ID NO 7, KLLLKLLKLL] | – | 11.2 | 7.8 | 6.8 | 10.4 | 11.9 | 8.8 | 13.2 | 11.2 | – | 8.8 | – | – | 12.1 | – |
| KWLLKLLKKL [SEQ ID NO 10, KWLLKLLKKL] | – | – | – | – | – | – | – | – | – | – | – | – | – | – | good hemolytic activity |
| LKWLLKLLKLK-NH2 [SEQ ID NO 11, LKWLLKLLKLK] | – | 12.1 | 12.0 | 9.0 | 11.2 | 13.1 | 15.0 | 14.1 | 8.7 | – | 16.0 | – | – | 10.0 | – |
| LLWKLLKKL [SEQ ID NO 4, LLWKLLKKL] | – | – | – | – | – | – | – | – | – | – | – | – | – | – | good hemolytic activity |
| LLWKLLKKLLK-NH2 [SEQ ID NO 3, LLWKLLKKLLK] | – | 14.0 | 15.8 | 9.1 | 10.0 | 14.5 | 13.8 | 19.4 | 15.2 | 15.0 | 17.2 | – | – | – | – |
| LLWKLLKLLLK-NH2 [SEQ ID NO 2, LLWKLLKLLLK] | – | 16.0 | 16.3 | 14.0 | 11.6 | 18.0 | 12.1 | 16.2 | 14.2 | 17.0 | 18.4 | – | – | – | – |
